Holding throughout (format): in vivo
Data set [1] has as its system wrinkles on the back skin due to photoaging, hairless mice. Nature of the data set: UV wrinkle model amelioration test. As to conditions: 9 weeks, 10 mice; for Number of Mice (number) +: +: Wrinkle-ameliorating effect was observed; for Number of Mice (number) ±: ±: Slight wrinkle-ameliorating effect; for Number of Mice (number) −: −: No wrinkle-ameliorating effect. On the procedure:
UV wrinkle model amelioration tests were conducted with the benzyl ursolate, methoxybenzyl oleanolate, phenylbenzyl betulate, benzoyl oleanolate, methoxybenzoyl betulate, and phenylpropionyl ursolate obtained in the above described Production Examples on hairless mice (5-week old, female) as test animals.
UVB (60 mJ/cm^2) was irradiated to the back skin of each animal of a test group consisting of 10 hairless mice once a day in a frequency of 5 days a week and after 8 weeks formation of wrinkles on the back skin due to photoaging was confirmed. Thereafter, 100 μl of ethanol solutions containing the aromatic compound derivatives of triterpenoid obtained in the Production Examples in concentrations shown in Table 3 were applied thereon once a day in a frequency of 5 days a week. After 9 weeks from the initiation of applying, the degree of ameliorating wrinkles in the skin due to photoaging were evaluated with naked eyes according to the following evaluation criteria.
−: No wrinkle-ameliorating effect was observed.
±: Slight wrinkle-ameliorating effect was observed.
+: Wrinkle-ameliorating effect was observed.
For comparison, ethanol solutions containing of palmitoyl oleanolate or 2-ethylhexyl 2-ethylhexanoyl ursolate in 1% concentration, hitherto used as drugs having a photoaging inhibiting effect, and neat ethanol as a control were applied to hairless mice after UVB irradiation in the same manner as described above and wrinkle-ameliorating effects were evaluated, respectively.

In data set [2] the test system is Hartley guinea pigs. Nature of the data set: Skin irritation test (24 hours' closed patch test). An excerpt: Skin irritation tests of benzyl ursolate, methoxybenzyl oleanolate, nitrobenzyl betulate, naphthylmethyl ursolate, diphenylmethyl oleanolate, benzoyl oleanolate, methoxybenzoyl betulate, and phenylpropionyl ursolate obtained in the above-described Production Examples were made using Hartley guinea pigs (300 to 500 g, female) as test animals.
For test groups each consisting of 6 guinea pigs, the hair on the back of each guinea pig was removed or shaven and on the hair-removed or shaven portion was applied a plastic adhesive plaster which a cloth patch of 15 mm in diameter impregnated with 50 mg of white vaseline containing a 10% by weight of one of the aromatic compound derivatives of triterpenoid obtained in the Production Examples described above was attached, and then 24 hours' closed patch test was performed. After the closed patch tests were completed, the resulting skin reactions after the removal of the plastic adhesive plasters were evaluated immediately (after 0 hour) and after 24 hours respectively, according to the evaluation criteria below and an average score was calculated based on the results obtained 6 animals in each test group.
(§1) 0: No skin reaction being observed
(§2) 1: Weak or unclearly bordered erythema
(§3) 3: Reaction accompanying edema
(§4) 4: Reaction of ulcer, necrosis, or the like
As a control, the above-described test and evaluation were conducted with only white vaseline.

The test system of data set [3] is Hartley guinea pigs. Nature of the data set: Allergy test (maximization method). The settings on record: skin reaction 24 hours after patch removal, scale 0-4.
Excerpt: Allergy tests of benzyl ursolate, methoxybenzyl oleanolate, phenylbenzyl betulate, benzoyl oleanolate, methoxybenzoyl betulate, and phenylpropionyl ursolate obtained in the above-described Production Examples were made using Hartley guinea pigs (300 to 500 g, female) as test animals.
For test groups each consisting of 6 guinea pigs were applied each an aromatic compound derivative of triterpenoid to a concentration of 3 w/v % in olive oil, an aromatic compound derivative of triterpenoid to a concentration of 0.3 w/v % in olive oil, and neat olive oil, respectively, by a maximization method to perform sensitization induction.
Thereafter, in order to induce sufficient immunoresponse, after a grace period of 10 days from the day when the final sensitization was made, there was applied to the back skin of each guinea pig a patch plate having 1.5 cm diameter coated with 100 μl of an aromatic compound derivative of triterpenoid to a concentration of 3 w/v % in olive oil, an aromatic compound derivative of triterpenoid to a concentration of 0.3 w/v % in olive oil, or neat olive oil, and the patch plate was removed after 24 hours. The resulting skin reaction after 24 hours from the removal of the patch plate was evaluated according to the following evaluation criteria and an average score was calculated for each test group.
as §1, §2, §3, §4

Where [4] appears, read: skin reaction 24 hours after plaster removal, 10% by weight in white vaseline, 24 hours' closed patch, average of 6 guinea pigs, scale 0-4.
Where [5] appears, read: skin reaction immediately after plaster removal, 10% by weight in white vaseline, 24 hours' closed patch, average of 6 guinea pigs, scale 0-4.
Where [6] appears, read: 3%-challenge patch, 3 w/v % in olive oil.

Regarding `CCCCC(CC)COC(=O)[C@]12CC[C@@H](C)[C@H](C)[C@H]1C1=CC[C@@H]3[C@@]4(C)CC[C@H](OC(=O)C(CC)CCCC)C(C)(C)[C@@H]4CC[C@@]3(C)[C@]1(C)CC2` (stereo partly drawn) [2-Ethylhexyl 2-ethylhexanoyl ursolate, 2-ethylhexyl 2-ethylhexanoyl ursolate, reference compound], in data set [1] (1.0 w/v% in ethanol), the “Number of Mice (number) +” value is given as 6 number, the “Number of Mice (number) ±” value amounted to 4 number and the “Number of Mice (number) −” value is recorded as 0 number.
In the case of `CC1(C)CC[C@]2(C(=O)O)CC[C@]3(C)C(=CC[C@@H]4[C@@]5(C)CC[C@H](OC(=O)c6ccccc6)C(C)(C)[C@@H]5CC[C@]43C)[C@@H]2C1` [Benzoyl oleanolate, benzoyl oleanolate], in data set [1] (0.01 w/v% in ethanol), the “Number of Mice (number) +” value came out at 6 number. Besides, the “Number of Mice (number) ±” value in data set [1] (0.01 w/v% in ethanol) is 4 number. In addition, the “Number of Mice (number) −” value in data set [1] (0.01 w/v% in ethanol) is recorded as 0 number. For the same molecule, in the data set on Hartley guinea pigs [2] (setting [4]), the “Score (Average) After 24 hours” value is 0. The “Score (Average) After 0 hour” value in the data set with Hartley guinea pigs [2] (setting [5]) worked out at 0. Besides, the “Evaluation Score (Average), 3%-induced group” value in the data set on Hartley guinea pigs [3] (0.3%-challenge patch), in the data set with Hartley guinea pigs [3] (setting [6]) and with Hartley guinea pigs [3] (Olive oil-challenge patch) was 0 throughout. Besides, the “Evaluation Score (Average), Olive oil induced group” value in the data set with Hartley guinea pigs [3] (0.3%-challenge patch) and in the data set with Hartley guinea pigs [3] (3%-challenge patch) was 0 in each case. The “Evaluation Score (Average), 0.3%-induced group” value in the data set on Hartley guinea pigs [3] (0.3%-sensitized group), in the data set with Hartley guinea pigs [3] (3%-sensitized group) and in the data set on Hartley guinea pigs [3] (Olive oil-sensitized group) was 0 in each case.
Take `C[C@H]1[C@H](C)CC[C@]2(C(=O)OCc3ccccc3)CC[C@]3(C)C(=CC[C@@H]4[C@@]5(C)CC[C@H](O)C(C)(C)[C@@H]5CC[C@]43C)[C@H]12` [Benzyl ursolate, benzyl ursolate]: the “Number of Mice (number) +” value in data set [1] (0.005 w/v% in ethanol, 100 μl once a day 5 days a week) was found to be 9 number. The “Number of Mice (number) ±” value in data set [1] (0.005 w/v% in ethanol) was determined as 1 number. Besides, in data set [1] (0.005 w/v% in ethanol), the “Number of Mice (number) −” value is recorded as 0 number. Further, the “Score (Average) After 24 hours” value in the data set on Hartley guinea pigs [2] (setting [4]) came out at 0. Also, the “Score (Average) After 0 hour” value with Hartley guinea pigs [2] (setting [5]) amounted to 0. Moreover, the “Evaluation Score (Average), 3%-induced group” value in the data set with Hartley guinea pigs [3] (0.3%-challenge patch) was determined as 0; in the data set with Hartley guinea pigs [3] (setting [6]), 0.17; with Hartley guinea pigs [3] (Olive oil-challenge patch) it was 0. Besides, the “Evaluation Score (Average), Olive oil induced group” value in the data set with Hartley guinea pigs [3] (0.3%-challenge patch) is on record as 0; with Hartley guinea pigs [3] (3%-challenge patch), 0.33. Moreover, the “Evaluation Score (Average), 0.3%-induced group” value with Hartley guinea pigs [3] (0.3%-sensitized group) was 0.17; in the data set with Hartley guinea pigs [3] (3%-sensitized group), 0; with Hartley guinea pigs [3] (Olive oil-sensitized group), 0.
With `CC1(C)CC[C@]2(C(=O)OC(c3ccccc3)c3ccccc3)CC[C@]3(C)C(=CC[C@@H]4[C@@]5(C)CC[C@H](O)C(C)(C)[C@@H]5CC[C@]43C)[C@@H]2C1` [Diphenylmethyl oleanolate, diphenylmethyl oleanolate], the “Score (Average) After 24 hours” value in the data set on Hartley guinea pigs [2] (setting [4]) was 0. Besides, the “Score (Average) After 0 hour” value with Hartley guinea pigs [2] (setting [5]) was found to be 0.
Regarding `C=C(C)C1CCC2(C(=O)O)CCC3(C)C(CCC4C5(C)CCC(OC(=O)c6ccc(OC)cc6)C(C)(C)C5CCC43C)C12` (stereo not drawn) [Methoxybenzoyl betulate, methoxybenzoyl betulate], in data set [1] (0.01 w/v% in ethanol), the “Number of Mice (number) +” value turned out to be 8 number, the “Number of Mice (number) ±” value is on record as 2 number and the “Number of Mice (number) −” value turned out to be 0 number. In addition, in the data set with Hartley guinea pigs [2] (guinea pig, in vivo), the “Score (Average) After 0 hour” value is reported as 0 and the “Score (Average) After 24 hours” value came out at 0.
Consider `COc1ccc(COC(=O)[C@]23CCC(C)(C)C[C@H]2C2=CC[C@@H]4[C@@]5(C)CC[C@H](O)C(C)(C)[C@@H]5CC[C@@]4(C)[C@]2(C)CC3)cc1` [Methoxybenzyl oleanolate, methoxybenzyl oleanolate], for which the “Number of Mice (number) +” value in data set [1] (0.01 w/v% in ethanol) is listed as 7 number. In addition, the “Number of Mice (number) ±” value in data set [1] (0.01 w/v% in ethanol) is given as 3 number. Further, the “Number of Mice (number) −” value in data set [1] (0.01 w/v% in ethanol) was found to be 0 number. For the same molecule, in the data set with Hartley guinea pigs [2] (setting [4]), the “Score (Average) After 24 hours” value is recorded as 0. For the same molecule, in the data set on Hartley guinea pigs [2] (setting [5]), the “Score (Average) After 0 hour” value is recorded as 0. Also, the “Evaluation Score (Average), 3%-induced group” value in the data set with Hartley guinea pigs [3] (0.3%-challenge patch) is listed as 0; with Hartley guinea pigs [3] (setting [6]), 0.33; in the data set with Hartley guinea pigs [3] (Olive oil-challenge patch), 0.17. The “Evaluation Score (Average), Olive oil induced group” value in the data set on Hartley guinea pigs [3] (0.3%-challenge patch) and in the data set on Hartley guinea pigs [3] (3%-challenge patch) was 0.17 throughout. Besides, the “Evaluation Score (Average), 0.3%-induced group” value with Hartley guinea pigs [3] (0.3%-sensitized group) came out at 0; with Hartley guinea pigs [3] (3%-sensitized group) it was 0; with Hartley guinea pigs [3] (Olive oil-sensitized group), 0.17.
For the molecule `C=C(C)C1CCC2(C(=O)OCc3ccc([N+](=O)[O-])cc3)CCC3(C)C(CCC4C5(C)CCC(O)C(C)(C)C5CCC43C)C12` (stereo not drawn) [Nitrobenzyl betulate, nitrobenzyl betulate], in the data set on Hartley guinea pigs [2] (guinea pig, in vivo), the “Score (Average) After 0 hour” value is reported as 0 and the “Score (Average) After 24 hours” value is on record as 0.
As for `CCCCCCCCCCCCCCCC(=O)OC1CCC2(C)C(CCC3(C)C2CC=C2C4CC(C)(C)CCC4(C(=O)O)CCC23C)C1(C)C` (stereo not drawn) [Palmitoyl oleanolate, palmitoyl oleanolate, reference compound], in data set [1] (1.0 w/v% in ethanol), the “Number of Mice (number) +” value came to 7 number, the “Number of Mice (number) ±” value turned out to be 3 number and the “Number of Mice (number) −” value was 0 number.
Consider `C=C(C)C1CCC2(C(=O)OCc3ccc(-c4ccccc4)cc3)CCC3(C)C(CCC4C5(C)CCC(O)C(C)(C)C5CCC43C)C12` (stereo not drawn) [Phenylbenzyl betulate, phenylbenzyl betulate], for which, in data set [1] (0.05 w/v% in ethanol), the “Number of Mice (number) +” value was 8 number, the “Number of Mice (number) ±” value is 2 number and the “Number of Mice (number) −” value was 0 number.
Take `C[C@H]1[C@H](C)CC[C@]2(C(=O)O)CC[C@]3(C)C(=CC[C@@H]4[C@@]5(C)CC[C@H](OC(=O)CCc6ccccc6)C(C)(C)[C@@H]5CC[C@]43C)[C@H]12` [Phenylpropionyl ursolate, phenylpropionyl ursolate]: in data set [1] (0.05 w/v% in ethanol), the “Number of Mice (number) +” value turned out to be 7 number. In addition, in data set [1] (0.05 w/v% in ethanol), the “Number of Mice (number) ±” value worked out at 3 number. For the same molecule, the “Number of Mice (number) −” value in data set [1] (0.05 w/v% in ethanol) came out at 0 number. In the data set with Hartley guinea pigs [2] (setting [4]), the “Score (Average) After 24 hours” value was 0. For the same molecule, in the data set on Hartley guinea pigs [2] (setting [5]), the “Score (Average) After 0 hour” value was 0. Further, the “Evaluation Score (Average), 3%-induced group” value was 0.17 in the data set on Hartley guinea pigs [3] (0.3%-challenge patch), 0 with Hartley guinea pigs [3] (setting [6]) and 0 in the data set with Hartley guinea pigs [3] (Olive oil-challenge patch). Further, the “Evaluation Score (Average), Olive oil induced group” value in the data set with Hartley guinea pigs [3] (0.3%-challenge patch) and with Hartley guinea pigs [3] (3%-challenge patch) was 0 each time. For the same molecule, the “Evaluation Score (Average), 0.3%-induced group” value with Hartley guinea pigs [3] (0.3%-sensitized group), in the data set with Hartley guinea pigs [3] (3%-sensitized group) and in the data set with Hartley guinea pigs [3] (Olive oil-sensitized group) was 0 in each case.
Consider naphthylmethyl ursolate, for which the “Score (Average) After 24 hours” value in the data set on Hartley guinea pigs [2] (setting [4]) turned out to be 0. Besides, in the data set on Hartley guinea pigs [2] (setting [5]), the “Score (Average) After 0 hour” value was 0.

(Values after patent publication US6338854B1, “Photoaging skin-care preparation and method of treating wrinkled skin” (Pola Chemical Industries, Inc., priority 1996, dated 2002).)
